Test results from patent US20250235450A1, “COMBINATION THERAPIES COMPRISING APREMILAST AND TYK2 INHIBITORS” (Celgene Corporation, priority 2019, published 2025).
Read-outs that look alike come from different tables or passages of the source.

Key:
[1] = system: anti-CD3/anti-CD28 (Th0) or anti-CD3/anti-CD28, IL-1β, IL-6 and IL-23 (Th17) stimulated whole blood; test: Ex-vivo TruCulture tube assay: cytokine production in stimulated whole blood; format: cell-based, human
Method: Whole blood was received through the Celgene Donor program after informed consent and donor deidentification. All volunteers were healthy and were not on any medications for at least 72 hours prior to the blood draw. Blood was collected in sodium heparin tubes. The assay was started within 2 hours of the blood draw.
An ex-vivo stimulation of healthy donor human whole blood was performed under two different stimulation conditions. Condition Th0 was a stimulation with TruCulture® tubes containing anti-CD3/anti-CD28. Condition Th17 was a stimulation with TruCulture® tubes containing anti-CD3/anti-CD28 plus IL-1β, IL-6 and IL-23. Whole blood was separated into 15 milliliter conical tubes and pre-treated with DMSO, apremilast alone, BMS-986165 alone or BMS-986165 combined with apremilast. Final concentrations were 0.2% DMSO, 1 μM for apremilast alone, 1 μM, 0.1 μM, 0.01 μM and 0.001 μM BMS-986165 alone and in combination with 1 μM apremilast. Blood was mixed well and then incubated in a 37° C./5% CO2 incubator for 1 hour.
The anti-CD3/anti-CD28 (200 ng/ml and 330 ng/ml final concentrations respectively) TruCulture® tubes were thawed on the bench top for 30 minutes and then labeled. Plungers were pressed and then broken off. TruCulture® tubes were placed in a rack standing upright such that the plunger side is pointing down in the rack and the tube-cap is pointing up. While blood was incubating with compound Human recombinant IL-6, IL-1β and IL-23 were added to all Th17 tubes in the following concentrations: 120 ng IL-6, 120 ng IL-1b and 150 ng IL-23. One ml of the pre-treated whole blood was placed in each tube, using sterile pyrogen-free pipette tips. The cap was replaced and the contents of the tube were mixed by inverting 3 times. The tubes were immediately placed in a 37° C. heat block and incubated for 42 hours (tube-cap end). After the 42 hours the tubes were removed from the heat block, tops were unscrewed and 250 μl of the supernatant was removed and transferred into three 96-well polypropylene plates. Samples were immediately frozen at −80° C. The supernatants were then thawed at room temperature and tested neat for cytokine production by Luminex Multi-Plex MagPix technology (Millipore) or IL-22 by ELISA (Abcam). The manufacturer's procedures were followed accordingly.
Data processing for the cytokine analysis was done using Milliplex Analyst (Millipore), and raw data was exported to Excel template for the cytokine analysis. Data from the template was plotted using GraphPad Prism 7.0 (GraphPad Software, Inc., La Jolla, CA) and expressed as pg/ml or % of control. Statistical analysis was also performed using One Way Anova and Dunnett's Post Test.
To evaluate the combinatory effect of apremilast and BMS-986165, data from the two independent treatments were analyzed by comparing the combinatory response against the theoretical additive response of the two agents. The expected additive effect of two agents (A and B) was calculated using the fractional product method: (fu)A,B=(fu)A×(fu)B; where fu=fraction unaffected by treatment.

LPS stimulated PBMCs = test: Viability of LPS stimulated PBMCs; format: cell-based, human; parameters: key: ↑: Induced; —: No change; ↓: Reduced
[2] = Th0, 0.01 μM BMS-986165 (combination: + 1 μM apremilast)
[3] = Th0, 0.1 μM BMS-986165 (combination: + 1 μM apremilast)
[4] = Th17, 0.01 μM BMS-986165 (combination: + 1 μM apremilast)
[5] = Th17, 0.1 μM BMS-986165 (combination: + 1 μM apremilast)

Structure (SMILES): [2H]C([2H])([2H])NC(=O)c1nnc(NC(=O)C2CC2)cc1Nc1cccc(-c2ncn(C)n2)c1OC [BMS-986165, 6-(cyclopropanecarboxamido)-4-((2-methoxy-3-(1-methyl-1H-1,2,4-triazol-3-yl)phenyl)amino)-N-(methyl-d3)pyridazine-3-carboxamide]
- increase of GM-CSF, statistical significance ([1]; 0.1 μM BMS-986165 (Th0 and Th17) and 1 μM (Th17)): significant
- inhibition at 0.01 µM ([1]; Homo sapiens, Th0, 0.01 μM BMS-986165, read-out: inhibition of IL-22): 16%
- inhibition at 0.1 µM ([1]; Homo sapiens, Th0, 0.1 μM BMS-986165, read-out: inhibition of IL-22): 86%
- inhibition at 1 µM ([1]; Homo sapiens, Th0, 1 μM BMS-986165, read-out: inhibition of IL-22): 91%
- inhibition at 0.001 µM ([1]; Homo sapiens, Th17, 0.001 μM BMS-986165 (combination: + 1 μM apremilast), read-out: inhibition of IL-17F): 31%
- inhibition at 0.01 µM ([1]; Homo sapiens, Th17, 0.01 μM BMS-986165 (combination: + 1 μM apremilast), read-out: inhibition of IL-17F): 34%
- inhibition at 0.1 µM ([1]; Homo sapiens, Th17, 0.1 μM BMS-986165 (combination: + 1 μM apremilast), read-out: inhibition of IL-17F): 70%
- inhibition at 1 µM ([1]; Homo sapiens, Th17, 1 μM BMS-986165 (combination: + 1 μM apremilast), read-out: inhibition of IL-17F): 95%
- inhibition at 1 µM ([1]; Homo sapiens, Th17, 1 μM BMS-986165, read-out: inhibition of TNF-α): 68%
- increase in TNF-α expression ([1]; Th0, 0.001 μM BMS-986165): 21%
- increase of GM-CSF ([1]; Th0, 0.001 μM BMS-986165): 19%
- increase in TNF-α expression ([1]; Th0, 0.01 μM BMS-986165): 43%
- increase of GM-CSF ([1]; Th0, 0.01 μM BMS-986165): 36%
- CCL20 % of Control [1, 2]: 82.7 % of Control
- GM-CSF % of Control [1, 2]: 136.3 % of Control
- IFN-γ % of Control [1, 2]: 100.2 % of Control
- IL-1β % of Control [1, 2]: 113.5 % of Control
- IL-2 % of Control [1, 2]: 120.1 % of Control
- IL-4 % of Control [1, 2]: 122.8 % of Control
- IL-5 % of Control [1, 2]: 153.1 % of Control
- IL-6 % of Control [1, 2]: 149.3 % of Control
- IL-10 % of Control [1, 2]: 101.5 % of Control
- IL-13 % of Control [1, 2]: 146.9 % of Control
- IL-17A % of Control [1, 2]: 83.5 % of Control
- IL-17F % of Control [1, 2]: 68.5 % of Control
- IL-21 % of Control [1, 2]: 107.6 % of Control
- IL-22 % of Control [1, 2]: 84.1 % of Control
- IL-23 % of Control [1, 2]: 101.8 % of Control
- TNF-α % of Control [1, 2]: 143.1 % of Control
- increase in TNF-α expression ([1]; Th0, 0.1 μM BMS-986165): 61%
- increase of GM-CSF ([1]; Th0, 0.1 μM BMS-986165): 110%
- CCL20 % of Control [1, 3]: 106.4 % of Control
- GM-CSF % of Control [1, 3]: 210.5 % of Control
- IFN-γ % of Control [1, 3]: 80.9 % of Control
- IL-1β % of Control [1, 3]: 113.2 % of Control
- IL-2 % of Control [1, 3]: 187.4 % of Control
- IL-4 % of Control [1, 3]: 114.7 % of Control
- IL-5 % of Control [1, 3]: 178.6 % of Control
- IL-6 % of Control [1, 3]: 124.0 % of Control
- IL-10 % of Control [1, 3]: 33.8 % of Control
- IL-13 % of Control [1, 3]: 205.9 % of Control
- IL-17A % of Control [1, 3]: 73.0 % of Control
- IL-17F % of Control [1, 3]: 28.3 % of Control
- IL-21 % of Control [1, 3]: 94.5 % of Control
- IL-22 % of Control [1, 3]: 13.4 % of Control
- IL-23 % of Control [1, 3]: 89.9 % of Control
- TNF-α % of Control [1, 3]: 160.7 % of Control
- increase of GM-CSF ([1]; Th0, 1 μM BMS-986165): 31%
- inhibition of TNF-α cytokine expression ([1]; Th0, 1 μM BMS-986165): 66%
- IL-17A levels ([1]; Th0, 1 μM BMS-986165 (combination: + 1 μM apremilast), control 138 pg/mL): 97 pg/mL
- effect on IL-17A cytokine expression ([1]; Th0 and Th17): inhibited
- effect on IL-17F cytokine expression ([1]; Th0 and Th17): inhibited
- effect on IL-22 cytokine expression ([1]; Th0 and Th17): inhibited
- effect on IL-22 cytokine expression, statistical significance ([1]; Th0 and Th17, 0.1 μM and 1 μM BMS-986165): significantly lowered
- inhibition of TNF-α levels, statistical significance ([1]; Th0 and Th17, 1 μM BMS-986165): significant
- effect on IL-17F, statistical significance ([1]; Th0 and Th17, 0.1 and 1 μM BMS-986165): significantly reduced
- effect on IL-22 cytokine expression ([1]; Th17, 0.001 μM BMS-986165): no effect
- increase in TNF-α production ([1]; Th17, 0.01 μM BMS-986165): 19%
- increase of GM-CSF ([1]; Th17, 0.01 μM BMS-986165): 41%
- CCL20 % of Control [1, 4]: 121.7 % of Control
- GM-CSF % of Control [1, 4]: 141.1 % of Control
- IFN-γ % of Control [1, 4]: 114.2 % of Control
- IL-1β % of Control [1, 4]: 94.2 % of Control
- IL-2 % of Control [1, 4]: 128.5 % of Control
- IL-4 % of Control [1, 4]: 126.5 % of Control
- IL-5 % of Control [1, 4]: 144.3 % of Control
- IL-6 % of Control [1, 4]: 96.8 % of Control
- IL-10 % of Control [1, 4]: 78.4 % of Control
- IL-13 % of Control [1, 4]: 158.1 % of Control
- IL-17A % of Control [1, 4]: 97.7 % of Control
- IL-17F % of Control [1, 4]: 73.6 % of Control
- IL-21 % of Control [1, 4]: 91.5 % of Control
- IL-22 % of Control [1, 4]: 83.3 % of Control
- IL-23 % of Control [1, 4]: 93.8 % of Control
- TNF-α % of Control [1, 4]: 118.5 % of Control
- inhibition of IL-22 cytokine expression [1, 4]: 17%
- IL-17A levels ([1]; Th17, 0.01 μM BMS-986165 (combination: + 1 μM apremilast), control 532 pg/mL): 519 pg/mL
- increase in TNF-α levels, statistical significance ([1]; Th17, 0.1 μM BMS-986165): significant
- increase in TNF-α production ([1]; Th17, 0.1 μM BMS-986165): 77%
- increase of GM-CSF ([1]; Th17, 0.1 μM BMS-986165): 139%
- CCL20 % of Control [1, 5]: 157.8 % of Control
- GM-CSF % of Control [1, 5]: 239.3 % of Control
- IFN-γ % of Control [1, 5]: 74.7 % of Control
- IL-1β % of Control [1, 5]: 89.0 % of Control
- IL-2 % of Control [1, 5]: 250.3 % of Control
- IL-4 % of Control [1, 5]: 161.9 % of Control
- IL-5 % of Control [1, 5]: 249.9 % of Control
- IL-6 % of Control [1, 5]: 112.7 % of Control
- IL-10 % of Control [1, 5]: 46.6 % of Control
- IL-13 % of Control [1, 5]: 287.5 % of Control
- IL-17A % of Control [1, 5]: 79.2 % of Control
- IL-17F % of Control [1, 5]: 30.0 % of Control
- IL-21 % of Control [1, 5]: 86.3 % of Control
- IL-22 % of Control [1, 5]: 39.8 % of Control
- IL-23 % of Control [1, 5]: 96.3 % of Control
- TNF-α % of Control [1, 5]: 177.4 % of Control
- inhibition of IL-22 cytokine expression [1, 5]: 60%
- IL-17A levels ([1]; Th17, 0.1 μM BMS-986165 (combination: + 1 μM apremilast), control 532 pg/mL): 428 pg/mL
- increase of GM-CSF ([1]; Th17, 1 μM BMS-986165): 104%
- inhibition of IL-22 cytokine expression ([1]; Th17, 1 μM BMS-986165): 70%
- IL-17A levels ([1]; Th17, 1 μM BMS-986165 (combination: + 1 μM apremilast), control 532 pg/mL): 383 pg/mL
- inhibition of IL-17A expression ([1]; similar under Th0 and Th17, 0.001-1 μM BMS-986165): 10-25%
- effect on GM-CSF production ([1]; whole blood, Th0 and Th17): increased
- effect on TNF-α production ([1]; whole blood, Th0 and Th17): increased
- Viability (LPS stimulated PBMCs): —
